Data on five compounds can be found in US20220127297A1, “Novel Antibacterial 3"-Derivatives Of 4,6-Disubstituted 2,5-Dideoxystreptamine Aminoglycoside Antibiotics” (AGILeBiotics B.V., priority 2018, published 2022).

SMILES strings stand for the structures. In brackets after ≈: the same amount, converted by molar mass.

What all share (test): MIC determination at Fidelta, clinical isolates
Holding throughout (format): cell-based

Assay [1] concerns clinical isolates of methicillin-resistant Staphylococcus aureus (MRSA). A digest of the protocol:
(§1)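 Clinical isolates and ATCC reference strains revived on MH agar, tested by broth microdilution in Mueller Hinton broth. Compounds from 5 mg/mL DMSO stocks, two-fold serial dilutions, final 64-0.125 μg/mL.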

In assay [2] the test system is clinical isolates of multidrug-resistant Acinetobacter baumannii (and ATCC17978). A digest of the protocol:
as §1

Assay [3] has as its system clinical isolates of multidrug-resistant Pseudomonas aeruginosa (and ATCC27853). A digest of the protocol: as §1
The test system of assay [4] is clinical isolates of Vancomycin-resistant Enterococcus faecium (VRE). An outline of the steps:
as §1

Setting [5] is: AB-2017, Bronchial aspirate/CRAB.
Setting [6] is: AB-2019, Bronchial aspirate/CRAB.

With `N=C(N)NC1C(O)[C@@H](CO)OC(OC2C(F)[C@H](O[C@H]3OC(CN)[C@@H](O)CC3N)C(N)C[C@H]2NC(=O)[C@@H](O)CCN)[C@@H]1O` (some centres unmarked) [ABX5006, Tobra-AHB-F-Gua], the MIC90 in assay [1] (MRSA-1995, Liquor) is 0.5 µg/mL (≈ 0.816 µM); in assay [1] (MRSA-1998, Wound), 0.25 µg/mL (≈ 0.408 µM); in assay [1] (MRSA-1999, Skin), 0.5 µg/mL (≈ 0.816 µM); in assay [1] (MRSA-2003, Wound), 0.5 µg/mL (≈ 0.816 µM); in assay [2] (A. baumannii ATCC17978 strain), <0.125 µg/mL; in assay [2] (AB-1931, Urine/CRAB) it was 0.5 µg/mL (≈ 0.816 µM). The “MIC90” value was 1 µg/mL (≈ 1.63 µM) in assay [2] (AB-1932, Urine (catheter)/CRAB); 1 µg/mL (≈ 1.63 µM) in assay [2] (AB-1964, Blood); 0.5 µg/mL (≈ 0.816 µM) in assay [2] (setting [5]); 1 µg/mL (≈ 1.63 µM) in assay [2] (AB-2018, Skin/CRAB); 1 µg/mL (≈ 1.63 µM) in assay [2] (setting [6]); 0.5 µg/mL (≈ 0.816 µM) in assay [2] (AB-2025, Skin). Also, the “MIC90” value in assay [2] (AB-2026, Skin) stood at 1 µg/mL (≈ 1.63 µM); in assay [3] (P. aeruginosa ATCC27853 strain), 0.25 µg/mL (≈ 0.408 µM); in assay [3] (PA-1948, Wound/OXA-2), 0.5 µg/mL (≈ 0.816 µM); in assay [3] (PA-1949, Urine/OXA-2), 8 µg/mL (≈ 13.1 µM); in assay [3] (PA-1950, Sputum/OXA-2) it was 1 µg/mL (≈ 1.63 µM); in assay [3] (PA-1952, Wound/OXA-2), 4 µg/mL (≈ 6.53 µM). Also, the “MIC90” value in assay [3] (PA-1953, Urine/MDR) amounted to 8 µg/mL (≈ 13.1 µM); in assay [3] (PA-1954, Sputum/OXA-2), 0.5 µg/mL (≈ 0.816 µM); in assay [3] (PA-1967, Blood/VIM) it was 4 µg/mL (≈ 6.53 µM); in assay [4] (VRE-2005, Urine), 4 µg/mL (≈ 6.53 µM); in assay [4] (VRE-2006, Urine) it was 32 µg/mL (≈ 52.2 µM); in assay [4] (VRE-2007, Urine) it was 4 µg/mL (≈ 6.53 µM). Further, the MIC90 in assay [4] (VRE-2008, Urine) was found to be 8 µg/mL (≈ 13.1 µM); in assay [4] (VRE-2009, Urine), 16 µg/mL (≈ 26.1 µM); in assay [4] (VRE-2010, Urine), 8 µg/mL (≈ 13.1 µM); in assay [4] (VRE-2011, Rectum), 16 µg/mL (≈ 26.1 µM); in assay [4] (VRE-2012, Rectum) it was 4 µg/mL (≈ 6.53 µM); in assay [4] (VRE-2013, Rectum), 4 µg/mL (≈ 6.53 µM).

As to `N=C(NCCN)NC1C(O)[C@@H](CO)OC(OC2C(F)[C@H](O[C@H]3OC(CN)[C@@H](O)CC3N)C(N)C[C@H]2NC(=O)[C@@H](O)CCN)[C@@H]1O` (some centres unmarked) [ABX5020, Tobra-AHB-F-Gua-2-amino-ethyl], the “MIC90” value in assay [2] (A. baumannii ATCC17978 strain) was 0.5 µg/mL (≈ 0.763 µM); in assay [2] (AB-1931, Urine/CRAB) it was 1 µg/mL (≈ 1.53 µM); in assay [2] (AB-1932, Urine (catheter)/CRAB) it was 1 µg/mL (≈ 1.53 µM); in assay [2] (setting [5]) it was 1 µg/mL (≈ 1.53 µM); in assay [2] (AB-2018, Skin/CRAB), 2 µg/mL (≈ 3.05 µM); in assay [2] (setting [6]) it was 2 µg/mL (≈ 3.05 µM). Also, the “MIC90” value in assay [3] (P. aeruginosa ATCC27853 strain) is 0.25 µg/mL (≈ 0.381 µM); in assay [3] (PA-1948, Wound/OXA-2), 1 µg/mL (≈ 1.53 µM); in assay [3] (PA-1949, Urine/OXA-2), 8 µg/mL (≈ 12.2 µM); in assay [3] (PA-1950, Sputum/OXA-2) it was 1 µg/mL (≈ 1.53 µM); in assay [3] (PA-1952, Wound/OXA-2) it was 8 µg/mL (≈ 12.2 µM); in assay [3] (PA-1953, Urine/MDR), 16 µg/mL (≈ 24.4 µM). For the same compound, in assay [3] (PA-1954, Sputum/OXA-2), the “MIC90” value turned out to be 0.5 µg/mL (≈ 0.763 µM).

Regarding `N=C(NC[C@@H]1CCCN1)NC1[C@@H](O)C(OC2[C@@H](F)[C@H](O[C@H]3OC(CN)[C@@H](O)CC3N)C(N)C[C@H]2NC(=O)[C@@H](O)CCN)O[C@H](CO)[C@H]1O` (stereo partly drawn) [ABX5026, Tobra-AHB-F-Gua (S) pyrrolidine-2-yl-methyl], the MIC90 is 0.5 µg/mL (≈ 0.719 µM) in assay [1] (MRSA-1995, Liquor); 0.25 µg/mL (≈ 0.359 µM) in assay [1] (MRSA-1998, Wound); 0.5 µg/mL (≈ 0.719 µM) in assay [1] (MRSA-1999, Skin); 0.5 µg/mL (≈ 0.719 µM) in assay [1] (MRSA-2003, Wound); 0.5 µg/mL (≈ 0.719 µM) in assay [2] (A. baumannii ATCC17978 strain); 1 µg/mL (≈ 1.44 µM) in assay [2] (AB-1931, Urine/CRAB). Also, the “MIC90” value in assay [2] (AB-1932, Urine (catheter)/CRAB) came out at 1 µg/mL (≈ 1.44 µM); in assay [2] (AB-1964, Blood) it was 2 µg/mL (≈ 2.87 µM); in assay [2] (setting [5]), 1 µg/mL (≈ 1.44 µM); in assay [2] (AB-2018, Skin/CRAB) it was 1 µg/mL (≈ 1.44 µM); in assay [2] (setting [6]) it was 1 µg/mL (≈ 1.44 µM); in assay [2] (AB-2025, Skin), 1 µg/mL (≈ 1.44 µM). For the same compound, the “MIC90” value in assay [2] (AB-2026, Skin) was 2 µg/mL (≈ 2.87 µM); in assay [3] (P. aeruginosa ATCC27853 strain) it was 1 µg/mL (≈ 1.44 µM); in assay [3] (PA-1948, Wound/OXA-2) it was 1 µg/mL (≈ 1.44 µM); in assay [3] (PA-1949, Urine/OXA-2) it was 16 µg/mL (≈ 23 µM); in assay [3] (PA-1950, Sputum/OXA-2), 1 µg/mL (≈ 1.44 µM); in assay [3] (PA-1952, Wound/OXA-2) it was 8 µg/mL (≈ 11.5 µM). Besides, the “MIC90” value in assay [3] (PA-1953, Urine/MDR) worked out at 32 µg/mL (≈ 46 µM); in assay [3] (PA-1954, Sputum/OXA-2), 1 µg/mL (≈ 1.44 µM); in assay [3] (PA-1967, Blood/VIM) it was 8 µg/mL (≈ 11.5 µM); in assay [4] (VRE-2005, Urine), 4 µg/mL (≈ 5.75 µM); in assay [4] (VRE-2006, Urine), 8 µg/mL (≈ 11.5 µM); in assay [4] (VRE-2007, Urine), 4 µg/mL (≈ 5.75 µM). Further, the MIC90 in assay [4] (VRE-2008, Urine) is 4 µg/mL (≈ 5.75 µM); in assay [4] (VRE-2009, Urine), 8 µg/mL (≈ 11.5 µM); in assay [4] (VRE-2010, Urine) it was 8 µg/mL (≈ 11.5 µM); in assay [4] (VRE-2011, Rectum) it was 8 µg/mL (≈ 11.5 µM); in assay [4] (VRE-2012, Rectum), 4 µg/mL (≈ 5.75 µM); in assay [4] (VRE-2013, Rectum) it was 4 µg/mL (≈ 5.75 µM).

As to `N=C(NC[C@@H]1CCNC1)NC1[C@@H](O)C(OC2[C@@H](F)[C@H](O[C@H]3OC(CN)[C@@H](O)CC3N)C(N)C[C@H]2NC(=O)[C@@H](O)CCN)O[C@H](CO)[C@H]1O` (stereo partly drawn) [ABX5039, Tobra-AHB-F-Gua (R) pyrrolidine-3-ylmethyl], the MIC90 stood at 0.5 µg/mL (≈ 0.719 µM) in assay [1] (MRSA-1995, Liquor); 0.25 µg/mL (≈ 0.359 µM) in assay [1] (MRSA-1998, Wound); 0.25 µg/mL (≈ 0.359 µM) in assay [1] (MRSA-1999, Skin); 0.5 µg/mL (≈ 0.719 µM) in assay [1] (MRSA-2003, Wound); 0.5 µg/mL (≈ 0.719 µM) in assay [2] (A. baumannii ATCC17978 strain); 1 µg/mL (≈ 1.44 µM) in assay [2] (AB-1931, Urine/CRAB). Moreover, the “MIC90” value is 1 µg/mL (≈ 1.44 µM) in assay [2] (AB-1932, Urine (catheter)/CRAB); 1 µg/mL (≈ 1.44 µM) in assay [2] (AB-1964, Blood); 1 µg/mL (≈ 1.44 µM) in assay [2] (setting [5]); 1 µg/mL (≈ 1.44 µM) in assay [2] (AB-2018, Skin/CRAB); 1 µg/mL (≈ 1.44 µM) in assay [2] (setting [6]); 1 µg/mL (≈ 1.44 µM) in assay [2] (AB-2025, Skin). For the same compound, the “MIC90” value in assay [2] (AB-2026, Skin) was determined as 2 µg/mL (≈ 2.87 µM); in assay [3] (P. aeruginosa ATCC27853 strain), 0.5 µg/mL (≈ 0.719 µM); in assay [3] (PA-1948, Wound/OXA-2) it was 1 µg/mL (≈ 1.44 µM); in assay [3] (PA-1949, Urine/OXA-2), 8 µg/mL (≈ 11.5 µM); in assay [3] (PA-1950, Sputum/OXA-2), 1 µg/mL (≈ 1.44 µM); in assay [3] (PA-1952, Wound/OXA-2), 4 µg/mL (≈ 5.75 µM). The “MIC90” value in assay [3] (PA-1953, Urine/MDR) turned out to be 32 µg/mL (≈ 46 µM); in assay [3] (PA-1954, Sputum/OXA-2), 1 µg/mL (≈ 1.44 µM); in assay [3] (PA-1967, Blood/VIM), 4 µg/mL (≈ 5.75 µM); in assay [4] (VRE-2005, Urine) it was 4 µg/mL (≈ 5.75 µM); in assay [4] (VRE-2006, Urine), 16 µg/mL (≈ 23 µM); in assay [4] (VRE-2007, Urine), 4 µg/mL (≈ 5.75 µM). Moreover, the MIC90 in assay [4] (VRE-2008, Urine) came out at 4 µg/mL (≈ 5.75 µM); in assay [4] (VRE-2009, Urine), 4 µg/mL (≈ 5.75 µM); in assay [4] (VRE-2010, Urine) it was 8 µg/mL (≈ 11.5 µM); in assay [4] (VRE-2011, Rectum) it was 8 µg/mL (≈ 11.5 µM); in assay [4] (VRE-2012, Rectum), 4 µg/mL (≈ 5.75 µM); in assay [4] (VRE-2013, Rectum) it was 4 µg/mL (≈ 5.75 µM).

With `NCC[C@H](O)C(=O)N[C@@H]1C[C@H](N)[C@@H](O[C@H]2O[C@H](CN)[C@@H](O)[C@H](O)[C@H]2O)[C@H](O)[C@H]1O[C@H]1O[C@H](CO)[C@@H](O)[C@H](N)[C@H]1O` [Amikacin, amikacin, reference compound], the MIC90 is 4 µg/mL (≈ 6.83 µM) in assay [1] (MRSA-1995, Liquor); 4 µg/mL (≈ 6.83 µM) in assay [1] (MRSA-1998, Wound); 8 µg/mL (≈ 13.7 µM) in assay [1] (MRSA-1999, Skin); 4 µg/mL (≈ 6.83 µM) in assay [1] (MRSA-2003, Wound); > 64 µg/mL in assay [4] (VRE-2005, Urine); > 64 µg/mL in assay [4] (VRE-2006, Urine). The MIC90 in assay [4] (VRE-2007, Urine) is > 64 µg/mL; in assay [4] (VRE-2008, Urine), > 54 µg/mL; in assay [4] (VRE-2009, Urine), > 64 µg/mL; in assay [4] (VRE-2010, Urine), > 64 µg/mL; in assay [4] (VRE-2011, Rectum), > 64 µg/mL; in assay [4] (VRE-2012, Rectum) it was > 64 µg/mL. In addition, the MIC90 in assay [4] (VRE-2013, Rectum) is > 64 µg/mL.
